Experimental data from patent US10822535B2, “Modified acid compositions as alternatives to conventional acids in the oil and gas industry” (Fluid Energy Group Ltd., priority 2017, dated 2020).
≈ marks a conversion by molar mass, not a printed value. Where two headings read alike, the source gives them in different places.

Experiments:
[1] = Acute lethal toxicity to marine copepods (ISO 14669); settings: Acartia tonsa (marine copepod), in vivo, other: aquatic phase (waterborne exposure), Water Accommodated Fraction, nominal concentrations
Description: A series of test were carried out to assess the environmental impact of monoethanoamine. A stock solution of 98-99% pure monoethanolamine was sent to be tested. The solution was diluted where necessary.
Determination of Acute Lethal Toxicity to Marine Copepods (Copepoda; Crustacea) (ISO 14669 (1999) Water Quality)
This study was commissioned to determine the aquatic phase toxicity of monoethanolamine to the marine copepod Acartia tonsa. The A. tonsa toxicity LC50 test was conducted in accordance with the study plan except for the following deviation and interferences but met all other relevant validity criteria. In the definitive test the temperature of the dilution water was below acceptable limits by a maximum of 0.7° C., the pH was below acceptable limits by a maximum of 0.01 units. These deviations were not expected to have an impact on the test as there was no control mortalities.

Skeletonema sp. = assay: Marine algal growth inhibition test (ISO 10253); type: cell-based; settings: 72 h, WAFs, nominal concentrations, read-out: 72 h EC(r)50
Source text: ISO 10253 (2016) Water Quality—Marine Algal Growth Inhibition Test with Skeletonema Sp. This study was commissioned to determine the aquatic phase toxicity of the composition of monoethanolamine to the marine unicellular algae Skeletonema sp. […] It is the results from this test that has been reported.

Corophium volutator = assay: Sediment bioassay using an amphipod (OSPARCOM 2006 Part A); type: in vivo; settings: sediment phase, via dried sediment, nominal concentrations
Description: OSPARCOM Guidelines (2006) Part A. A Sediment Bioassay Using an Amphipod Corophium sp
This study was commissioned to determine the sediment phase toxicity of the composition of monoethanolamine to the intertidal amphipod Corophium volutator. […] The result is based on nominal concentrations and was calculated by Linear Interpolation within the CETIS suite of statistical analysis.

[2] = Aerobic degradability in seawater (OECD 306)
Description: This study was commissioned to determine the aerobic degradability of the composition of monoethanolamine in seawater. […] The ThODNO3 value was determined from the chemical formula of the compound tested.
The OECD 306 guideline states the test material can be considered to be inhibitory to bacteria (at the concentration used) if the BOD of the mixture of reference and test materials is less than the sum of the BOD of the separate solutions of the two substances.

Cyprinodon variegatus = assay: Marine fish 96 h limit test (OSPAR); type: in vivo; settings: 96 h exposure at 199.7 mg/l (Water Accommodated Fraction)
Description: This study was commissioned to determine the aquatic (96 h limit test) toxicity of the composition of monoethanolamine to the marine fish Cyprinodon variegatus.
There were no interferences in this test. Test conditions of exposure were within formal and informal limits of acceptability except for the exception noted below. There were ten fish used in both the test and control tanks, with no control mortality observed.
The test concentration was derived from the test material EC/LC50 value between the most sensitive acute toxicity test species Skeletonema sp. and A. tonsa.

Compound	LC50 at 48 h ([1]; 48 h LC50, definitive test, seawater)	LC50 at 48 h ([1]; 48 h LC50, range-finding test)	EC50 (Skeletonema sp.; definitive test)	EC50 (Skeletonema sp.; range-finding test)	10 day LC50 (Corophium volutator)	biodegradation [2]	percentage inhibition of bacteria ([2]; in 28 days)	mortality (Cyprinodon variegatus)	degradation of reference material ([2]; first 14 days, seawater)
NCCO [monoethanolamine]	434 µg/mL (≈ 7.1 mM)	550 µg/mL (≈ 9 mM)	200 µg/mL (≈ 3.27 mM)	509 µg/mL (≈ 8.33 mM)	6,660 mg/kg	71%	12%	no mortalities	
O=C([O-])c1ccccc1.[Na+] [sodium benzoate, reference compound]									more than 60%
